From patent US20030003396A1, “Optical data carrier comprising a merocyanine dye as light-absorbent compound in the information layer” (priority 2001, published 2003) come the findings set out here.

The data set in a line: UV absorption spectra measured in solution. Format: physicochemical. From the text: In the case of a write-once optical data carrier according to the invention which is written on and read by means of the light of a blue laser, preference is given to merocyanine dyes whose absorption maximum λmax1 is in the range from 340 to 410 nm, […] half of the […] one tenth of the absorbance value at λmax1 are preferably not more than 50 nm apart. Such a merocyanine dye preferably has no longer-wavelength maximum λmax2 up to a wavelength of 500 nm, particularly preferably up to 550 nm, very particularly preferably up to 600 nm.
The absorption spectra are measured, for example, in solution.
Suitable merocyanines having the required spectral properties are, in particular, those in which the dipole moment change Δμ=|μg−μag|, i.e. the positive difference between the dipole moments in the ground state and in the first excited state, is very small, preferably <5 D, particularly preferably <2 D. A method of determining such a dipole moment change Δμ is described, for example, in F. Würthner et al., Angew. Chem. 1997, 109, 2933, and in the literature cited therein. A low solvent-induced wavelength shift (dioxane/DMF) is likewise a suitable selection criterion. Preference is given to merocyanines whose solvent-induced wavelength shift Δλ=|λDMF−λdioxane|, i.e. the positive difference between the absorption wavelengths in the solvents dimethylformamide and dioxane, is <20 nm, particularly preferably <10 nm, very particularly preferably <5 nm

Setting [1] is: Table 1, on the short wavelength flank.
Setting [2] is: Table 2, on the short wavelength flank.
[3] abbreviates: Table 2, on the long wavelength flank.
Setting [4] is: Table 1, on the long wavelength flank.

Marks after values point to notes of the source that are not given here.

`CCCCN(CCCC)c1ccc(C=C2C(=O)N(C)C(=O)N(C)C2=O)o1` [Example 9] showed a ε (Table 1) of 117700 L/mol/cm. For the same compound, under “Table 1, in DMF”, the λmax is 490^6) nm.

For `CCCN1C(=O)C(=CC=CN(C)C)C(C)=C(C#N)C1=O` [Example 68], the ε (Table 3) came to 77180 L/mol/cm. The same compound had a λmax (Table 3, in dioxane) of 462 nm. The λ1/2-λ1/10 (Table 3, on the short wavelength flank) is 28^3) nm. The Δλ (Table 3, |λDMF-λdioxane|) turned out to be 8 nm.

`CCCN1C(=O)C(=Cc2cnc(N(C)C)s2)C(C)=C(C#N)C1=O` [Example 6] yielded a ε (Table 1) of 62860 L/mol/cm. For the same compound, the λmax (Table 1, in dioxane) is 502 nm. Under setting [1], the λ1/2-λ1/10 was 33^3) nm.

Under “Table 2”, `CN1C(=CC=C2C(=O)CC(C)(C)CC2=O)C(C)(C)c2ccccc21` [Example 41] showed a ε of 76130 L/mol/cm. The compound further yielded a λmax (Table 2, in dioxane) of 469 nm. In addition, the λ1/2-λ1/10 under setting [2] was 28^3) nm. For the setting “Table 2, |λDMF - λdioxane|”, this compound registered a Δλ of 3 nm.

`CN1C(=CC=C(C#N)c2nc3ccccc3s2)C(C)(C)c2ccccc21` [Example 57] showed a ε (Table 2) of 57230 L/mol/cm. Moreover, the λmax (Table 2, in dioxane) came to 462 nm. For the same compound, the λ1/2-λ1/10 under setting [2] is 34^3) nm.

Where the note is “Table 2”, `CCOC(=O)C1=NN(c2ccccc2)C(=O)C1=CC=C1N(C)c2ccc(C(=O)OC)cc2C1(C)C` [Example 52] yielded a ε of 62720 L/mol/cm. The λmax (Table 2, in dioxane) was found to be 496 nm.

On to `CCOC(=O)C(C#N)=c1[nH]c(=O)c(=CC=C2N(C)c3ccccc3C2(C)C)c(C)c1C(=O)OCC` [Example 64], for which the λmax (Table 2, in methanol) was 577^5) nm.

Consider `COc1ccc2c(c1)C(C)(C)C(=CC(C#N)=C(C#N)C#N)N2C` [Example 43], for which the ε (Table 2) was 31345 L/mol/cm. The same compound returned a λmax (Table 2, in dioxane) of 511 nm. For the same compound, the λ1/2-λ1/10 under setting [2] is 36^3) nm. Also, the Δλ (Table 2, |λDMF - λdioxane|) is recorded as 6 nm.

On to `CCN1CCCC1=CC=C1SC(=S)N(CC)C1=O` [Example 60], for which the ε (Table 2) was found to be 75006 L/mol/cm. Besides, the λmax (Table 2, in dioxane) came out at 466 nm. Also, under setting [3], the λ1/2-λ1/10 is on record as 10^4) nm.

As to `CCCCN1C(=O)C(=CC=C2Oc3ccccc3N2CC)C(C)=C(C#N)C1=O` [Example 55], the ε (Table 2) is 109380 L/mol/cm. Also, the λmax (Table 2, in methylene chloride) is recorded as 490^6) nm. Under “Table 2, |λDMF - λdioxane|”, this compound came in with a Δλ of 5 nm.

With `CCN(CC)c1ncc(C=C(C#N)[n+]2ccccc2)s1.[O-][Cl+3]([O-])([O-])[O-]` [Example 33], the ε (Table 1) was found to be 28360 L/mol/cm. Moreover, the λmax (Table 1, in methanol) is recorded as 432^5) nm.

Consider `COC(=O)C(C#N)=CC=CN1CCOCC1` [Example 79], for which the ε (Table 3) turned out to be 62900 L/mol/cm. This compound also gave a λmax (Table 3, in dioxane) of 382 nm.

Consider `CN(C=CC=C1C(=O)c2ccccc2C1=O)c1ccccc1` [Example 73], for which the ε (Table 3) was found to be 84070 L/mol/cm. In addition, the λmax (Table 3, in dioxane) stood at 447 nm.

As to `CCCCN(CCCC)c1ncc(C=C2C(=O)N(CC)C(=O)C(C#N)=C2C)s1` [Example 13], for the setting “Table 1”, the ε is 78400 L/mol/cm. The compound further yielded a λmax (Table 1, in dioxane) of 508 nm.

Take `CCCOC(=O)C(C#N)=CC=C1N(C)c2ccccc2C1(C)C` [Example 38]: the ε (Table 2) was found to be 60390 L/mol/cm. This compound yielded a λmax (Table 2, in dioxane) of 429 nm. Further, under setting [2], the λ1/2-λ1/10 is given as 30^3) nm. This compound showed a Δλ (Table 2, |λDMF - λdioxane|) of 7 nm.

Compound `CCCCN(CCCC)c1ccc(C=C2C(=O)N(CCC)C(=O)C(C#N)=C2C)s1` [Example 18] had a ε (Table 1) of 112260 L/mol/cm. For the setting “Table 1, in dioxane”, the λmax was 535 nm. For the same compound, the λ1/2-λ1/10 under setting [4] is 13^4) nm.

Take `CC1=C(C#N)C(=O)N(C2CCCCC2)C(=O)C1=CC=C1N(C)c2ccccc2C1(C)C` [Example 45]: the ε (Table 2) was determined as 55910 L/mol/cm. The λmax (Table 2, in dioxane) stood at 519 nm. Under setting [3], the λ1/2-λ1/10 is 11^4) nm.

`CCCN1C(=O)C(=CC=CN(C)c2ccc(OC)cc2)C(C)=C(C#N)C1=O` [Example 74]: the ε (Table 3) came out at 73010 L/mol/cm. This compound yielded a λmax (Table 3, in dioxane) of 482 nm. The Δλ (Table 3, |λDMF-λdioxane|) is given as 4.3 nm.

`CCN1C(=O)C(=CC=C2N(C)c3ccccc3C2(C)C)SC1=S` [Example 61] came in with a ε (Table 2) of 36610 L/mol/cm. Also, the λmax (Table 2, in methylene chloride) is listed as 512^6) nm. For the same compound, the λ1/2-λ1/10 under setting [3] was 25^4) nm. Where the note is “Table 2, |λmethylene chloride-λmethanol|”, the Δλ is recorded as 36^7) nm.

`CN(C)c1ncc(C(C#N)=C(C#N)C#N)s1` [Example 5]: under “Table 1”, the ε was 40990 L/mol/cm. The λmax (Table 1, in dioxane) is recorded as 470 nm. Besides, the λ1/2-λ1/10 under setting [1] is 32^3) nm. The Δλ (Table 1, |λDMF-λdioxane|) is recorded as 16 nm.

As to `Cc1c(C#N)c(=C(C#N)C#N)[nH]c(=O)c1=CC=C1N(C)c2ccccc2C1(C)C` [Example 66], for the setting “Table 2, in methanol”, the λmax is on record as 546^5) nm.

`CCCCN1C(=O)C(=CC=C2N(C)c3ccccc3C2(C)C)C(C)=C(C#N)C1=O` [Example 42] returned a ε (Table 2) of 113100 L/mol/cm. For the same compound, for the setting “Table 2, in dioxane”, the λmax worked out at 520 nm. Under setting [3], the λ1/2-λ1/10 is listed as 12^4) nm. This compound also came in with a Δλ (Table 2, |λDMF - λdioxane|) of 2 nm.

`CCCCN(CCCC)c1ccc(C=C2C(=O)N(C)C(=S)N(C)C2=O)o1` [Example 29] registered a ε (Table 1) of 153420 L/mol/cm. The λmax (Table 1, in dioxane) turned out to be 508 nm. Further, the λ1/2-λ1/10 under setting [4] is on record as 11^4) nm.

`CCCN1C(=O)C(=CC(C)=CN(C)C)C(C)=C(C#N)C1=O` [Example 83] displayed a λmax (Table 3, in dioxane) of 337 nm.

`COc1ccc(N(C)C=CC=C2C(=O)NC(=O)C([n+]3ccccc3)=C2C)cc1.[O-][Cl+3]([O-])([O-])[O-]` [Example 75] yielded a ε (Table 3) of 62780 L/mol/cm. In addition, the λmax (Table 3, in methanol) was 469^5) nm.

`CCCCN(CCCC)c1ccc(C=C2C(=O)OC(C)(C)OC2=O)o1` [Example 8] displayed a ε (Table 1) of 70880 L/mol/cm. Where the note is “Table 1, in dioxane”, the λmax was 472 nm. Also, the λ1/2-λ1/10 under setting [1] is given as 32^3) nm. This compound also showed a Δλ (Table 1, |λDMF-λdioxane|) of 5 nm.

`CN1C(=CC=C2C(=O)OC(C)(C)OC2=O)C(C)(C)c2ccccc21` [Example 40] returned a ε (Table 2) of 76260 L/mol/cm. Besides, the λmax (Table 2, in dioxane) came to 448 nm. Further, under setting [2], the λ1/2-λ1/10 was 27^3) nm. The compound also showed a Δλ (Table 2, |λDMF - λdioxane|) of 2 nm.

`COC(=O)c1ccc2c(c1)C(C)(C)C(=CC=c1c(C)c(C#N)c(=C(C#N)C#N)[nH]c1=O)N2C` [Example 67]: under “Table 2”, the ε came out at 50900 L/mol/cm. For the same compound, the λmax (Table 2, in methanol) is given as 554^5) nm.

In the case of `COC(=O)c1ccc2c(c1)C(C)(C)C(=CC=C(C#N)[n+]1ccccc1)N2C.[O-][Cl+3]([O-])([O-])[O-]` [Example 58], where the note is “Table 2”, the ε was determined as 36010 L/mol/cm. Also, the λmax (Table 2, in methanol) is recorded as 459^5) nm.

Compound `CCN1C(=O)C(=CC=CC=CN(C)c2ccccc2)C(C)=C(C#N)C1=O` [Example 80] had a ε (Table 3) of 119800 L/mol/cm. Under “Table 3, in dioxane”, this compound displayed a λmax of 585 nm. In addition, the λ1/2-λ1/10 (Table 3, on the long wavelength flank) was 28^4) nm.

In turn, `COc1ccc2c(c1)C(C)(C)C(=CC=C1C(=O)N(c3ccc(C4CCS(=O)(=O)C4)cc3)N=C1C)N2C` (stereo not drawn) [Example 50] yielded a ε (Table 2) of 47640 L/mol/cm. This compound also came in with a λmax (Table 2, in dioxane) of 473 nm.

For the setting “Table 2”, `CN1C(=CC=C2C(=O)c3ccccc3C2=O)C(C)(C)c2ccccc21` [Example 39] gave a ε of 102220 L/mol/cm. For the same compound, the λmax (Table 2, in dioxane) is 487 nm. Under setting [2], the λ1/2-λ1/10 is on record as 35^3) nm. For the setting “Table 2, |λDMF - λdioxane|”, this compound showed a Δλ of 6 nm.

For `CCCCN1C(=O)C(=CC=C2N(C)c3ccc(C(=O)OC)cc3C2(C)C)C(=O)c2ccccc21` [Example 53], the ε (Table 2) is 110332 L/mol/cm. This compound gave a λmax (Table 2, in dioxane) of 500 nm.

Compound `COC(=O)C(=CC=CN1CCOCC1)C(=O)OC` [Example 78] had a λmax (Table 3, in dioxane) of 366 nm.
